Measured values from patent publication US12453784B2 (priority 2018, dated 2025).

Tests used:
[1] = test infusion, 500 μL to each motor cortex
[2] = system: release of neurotransmitters including acetylcholine, norepinephrine, and glutamate; conditions: in vivo; cited from earlier work

Row | Molecule | motor cortical coverage [1] | period of reversible inhibition of neurotransmitter release [2]
1 | [Gd] [gadolinium] | satisfactory motor cortical coverage | 
2 | Botulinum toxin type A |  | 2-6 months
